8 molecules from ChEMBL document CHEMBL1201862, “PubChem BioAssay data set” (2004) can be followed below.

Assay in all cases: NCI-60 cell line screen, 48 h
In test [1] the test system is HOP-92.
Test [2] concerns LOX IMVI.
Test [3] deals with NCI-H522.
The test system of test [4] is MDA-MB-231.
Test [5] deals with NCI/ADR-RES.
The subject of test [6] is SF-539.
The subject of test [7] is SNB-19.
In test [8] the test system is SK-OV-3.
Test [9] deals with DU-145.
The subject of test [10] is CCRF-CEM.
Test [11] has as its system HOP-62.
Test [12] concerns HCT-15.
In test [13] the test system is U-251.
Test [14] concerns OVCAR-3.
The test system of test [15] is Malme-3M.
In test [16] the test system is SNB-75.
The subject of test [17] is CAKI-1.
Test [18] concerns SW-620.

Molecules are shown by their SMILES.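 The compound was tested at five concentrations on cells cultured in 96-well plates, with a 48-hour exposure period. Abbreviation: GI50, concentration required for 50% inhibition of growth.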 Active and inactive are the calls of the source. Rule as the data show it: active = GI50 up to about 1.1 µM and inactive = higher.

For `Cc1ccccc1NC(=S)N/N=C1\C(=O)Nc2ccccc21`, the GI50 in test [1], in test [2], in test [3], in [4], in test [5] and in test [6] was > 100 µM (inactive) throughout. Besides, the GI50 in test [7] was > 100 µM (inactive); in test [8], > 100 µM (inactive); in test [9], 31.4 µM (inactive); in [10], > 100 µM (inactive); in [11] it was > 100 µM (inactive); in test [12], greater than 100 µM. The GI50 in test [13], in test [14], in test [15], in test [16], in [17] and in test [18] was > 100 µM (inactive) throughout.
As for `COC(=O)c1ccccc1C1CN=NC12Cc1c(C)cc(C)cc1C2=O` (centres undefined), the GI50 in test [1] is > 100 µM (inactive); in test [2] it was > 100 µM (inactive); in test [3], 8.34 µM (inactive); in test [4], 45.4 µM (inactive); in test [5] it was > 100 µM (inactive); in test [6] it was > 100 µM (inactive). Besides, the GI50 in [7] is > 100 µM (inactive); in test [8], > 100 µM (inactive); in test [9] it was > 100 µM (inactive); in [10] it was > 100 µM (inactive); in test [11], > 100 µM (inactive); in test [12], greater than 100 µM. For the same molecule, the GI50 was > 100 µM (inactive) in test [13]; > 100 µM (inactive) in test [14]; > 100 µM (inactive) in test [15]; 58.2 µM (inactive) in test [16]; > 100 µM (inactive) in [17]; > 100 µM (inactive) in test [18].
On to `Nc1ccc2nc3ccc(N)cc3[n+](-c3ccccc3)c2c1`, for which the GI50 in [1] was 67 µM (inactive); in [2], 15.7 µM (inactive); in [3], 11.6 µM (inactive); in test [4], 63.8 µM (inactive); in [5], 14.9 µM (inactive); in test [6] it was 60.7 µM (inactive). Besides, the GI50 in [7] was 40.4 µM (inactive); in test [8] it was > 100 µM (inactive); in [9], 68.2 µM (inactive); in [10], > 100 µM (inactive); in test [11] it was 43.3 µM (inactive); in test [12] it was greater than 100 µM. The GI50 in test [13] was 38.5 µM (inactive); in test [14], 6.4 µM (inactive); in test [15], 18.6 µM (inactive); in [16] it was 42.1 µM (inactive); in test [17] it was > 100 µM (inactive); in test [18] it was 37.3 µM (inactive).
As to `CC(=O)CC1(CBr)Nc2ccc([N+](=O)[O-])cc2NC1=O` (centres undefined), the GI50 in test [1] was 59.6 µM (inactive); in test [2], 52.1 µM (inactive); in test [3], 18.5 µM (inactive); in test [4], > 100 µM (inactive); in test [5], > 100 µM (inactive); in [6] it was 44.1 µM (inactive). In addition, the GI50 in [7] was > 100 µM (inactive); in test [8] it was > 100 µM (inactive); in test [9], 42.1 µM (inactive); in test [10], 45.2 µM (inactive); in [11], 83.2 µM (inactive); in test [12], 82.6 µM. Also, the GI50 was > 100 µM (inactive) in test [13]; 28.1 µM (inactive) in [14]; 92.3 µM (inactive) in [15]; > 100 µM (inactive) in test [16]; > 100 µM (inactive) in test [17]; 28.7 µM (inactive) in test [18].
Consider `CCCCCC(/C=N/Nc1ccccc1)C(O)(C(F)(F)F)C(F)(F)F` (centres undefined), for which the GI50 in [1], in test [2], in test [3], in [4], in test [5] and in test [6] was > 100 µM (inactive) each time. Also, the GI50 in [7] is > 100 µM (inactive); in test [8], > 100 µM (inactive); in test [9], > 100 µM (inactive); in [10], 83.2 µM (inactive); in test [11] it was > 100 µM (inactive); in [12], greater than 100 µM. Further, the GI50 in [13], in [14], in test [15], in test [16], in test [17] and in test [18] was > 100 µM (inactive) each time.
Turning to `O=C1c2[nH]c3ccccc3c2CCN2CCCCC12` (centres undefined), the GI50 is 18.5 µM (inactive) in [1]; 22.3 µM (inactive) in test [2]; 20.3 µM (inactive) in [3]; 19.2 µM (inactive) in [4]; 22.8 µM (inactive) in test [5]; 21.1 µM (inactive) in [6]. The GI50 in test [7] was 24.9 µM (inactive); in test [8], 31.1 µM (inactive); in test [9], 36.4 µM (inactive); in test [10] it was 22.6 µM (inactive); in test [11], 29.3 µM (inactive); in test [12], 31.9 µM. Also, the GI50 in test [13] is 18.8 µM (inactive); in test [14], 19.7 µM (inactive); in test [15], 25.6 µM (inactive); in test [16], 28.5 µM (inactive); in [17] it was 38.2 µM (inactive); in test [18], 26.1 µM (inactive).
Regarding `COC(=O)c1c(O)ccc2c1c1c(n2Cc2cc(OC)cc(OC)c2)C(=O)c2ccccc2C1=O`, the GI50 in test [1] is 4.92 µM (inactive); in [2], 8.67 µM (inactive); in [3], 3.03 µM (inactive); in test [4], 7.13 µM (inactive); in test [5], 4.06 µM (inactive); in test [6], 11.5 µM (inactive). The GI50 was 24.4 µM (inactive) in [7]; 6.52 µM (inactive) in test [8]; 21 µM (inactive) in [9]; 3.7 µM (inactive) in test [10]; 9.29 µM (inactive) in [11]; 3.93 µM in test [12]. Besides, the GI50 in test [13] is 8.26 µM (inactive); in test [14], 7.87 µM (inactive); in [15], 6.34 µM (inactive); in [16], 14.1 µM (inactive); in test [17], 18.7 µM (inactive); in [18], 9.51 µM (inactive).
As for `CSc1ccc2c(c1)c(CCN)c(C)n2Cc1ccccc1Cl`, the GI50 in [1] is 1.26 µM (inactive); in [2], 1.83 µM (inactive); in [3], 1.5 µM (inactive); in test [4], 1.84 µM (inactive); in test [5] it was 2.03 µM (inactive); in test [6] it was 1.37 µM (inactive). Further, the GI50 is 1.77 µM (inactive) in test [7]; 2 µM (inactive) in test [8]; 1.66 µM (inactive) in [9]; 1.51 µM (inactive) in [10]; 1.18 µM (inactive) in [11]; 2.02 µM in test [12]. Also, the GI50 was 1.66 µM (inactive) in [13]; 1.86 µM (inactive) in test [14]; 1.69 µM (inactive) in test [15]; 1.61 µM (inactive) in test [16]; 1.95 µM (inactive) in test [17]; 1.78 µM (inactive) in test [18].
